{"source": "paper PMC10319809", "about": "“Chronic UCN2 treatment desensitizes CRHR2 and improves insulin sensitivity” (Nature Communications, 2023)", "key": {"human CRHR2a (Gs)": {"target": "T1, human CRHR2a (Gs) (Homo sapiens, UniProt Q13324)", "T1 construct": "expressed in transfected cells; host or cells: HEK293 cells (Millipore Sigma), transient PEI co-transfection with biosensor plasmids at Domain Therapeutics", "T1 sequence (Q13324 1-411)": "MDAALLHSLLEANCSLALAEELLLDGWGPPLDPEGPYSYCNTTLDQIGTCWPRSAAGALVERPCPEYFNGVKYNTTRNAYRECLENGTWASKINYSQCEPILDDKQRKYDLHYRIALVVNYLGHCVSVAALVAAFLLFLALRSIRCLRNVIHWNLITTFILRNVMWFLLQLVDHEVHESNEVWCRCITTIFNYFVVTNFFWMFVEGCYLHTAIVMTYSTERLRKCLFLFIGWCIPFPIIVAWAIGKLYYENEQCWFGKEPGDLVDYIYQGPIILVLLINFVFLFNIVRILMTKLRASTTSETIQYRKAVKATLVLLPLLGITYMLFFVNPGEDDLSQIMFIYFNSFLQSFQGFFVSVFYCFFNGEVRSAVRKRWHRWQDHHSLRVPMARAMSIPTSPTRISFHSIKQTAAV", "test": "ebBRET effector membrane translocation assay (EMTA), Gs biosensor", "assay_type": "cell-based", "conditions": "comparison of concentration response curves; Gs at lower concentration", "procedure": "Typically, GPCR desensitization is carried out through the recruitment of β-Arrestins or alternative G-proteins to the receptor. To identify whether these proteins are recruited to CRHR2 in response to UCN2, enhanced bystander bioluminescence resonance energy transfer (ebBRET)-based effector membrane translocation assays (EMTA) were carried out in HEK293 cells[28],[29]. Cells were co-transfected with plasmids expressing unmodified CRHR2a (alpha isoform) and one of various pathway-specific biosensors. […]\nEffector membrane translocation biosensor assays (bioSensAll®) were conducted at Domain Therapeutics NA Inc. (Montreal, QC, Canada) and described in cells[28],[29]. […] Briefly, DNA and PEI were diluted separately in 150 mM NaCl, mixed and then incubated for at least 20 min at room temperature (note: salmon sperm DNA (Invitrogen) was used to adjust the total amount of DNA transfected to a final quantity of 1 ug per mL of cell culture to be transfected). During the 20-minute incubation, HEK293 cells were detached, counted and resuspended into cell culture medium to a final density of 350,000 cells per mL. […] Cells were then incubated at room temperature for 10 min and BRET readings subsequently collected with a 0.4 s integration time on a Synergy NEO plate reader (BioTek Instruments, Inc., USA; filters: 400 nm/70 nm, 515 nm/20 nm). […]"}, "CRHR2 alpha": {"target": "T2, CRHR2 alpha (Homo sapiens, UniProt Q13324)", "T2 construct": "host or cells: HEK-TREX-CRHR2 alpha cells, non-induced", "T2 sequence (Q13324 1-411)": "T1 sequence (Q13324 1-411)", "test": "HTRF cAMP assay in HEK-TREX-CRHR2 alpha cells, with or without UCN2 pre-treatment", "assay_type": "cell-based", "conditions": "n = 3", "procedure": "To determine whether CRHR2 functional desensitization in response to UCN2 occurred tissue-autonomously, we turned to CRHR2-transfected HEK 293 cells.\nTo measure cell-based CRHR2 agonist activity a HTRF (Homogenous Time-Resolved Fluorescence) cAMP detection kit (Cisbio cAMP dynamic 2 assay kit) was performed in non-induced HEK-TREX-CRHR2 alpha cells (Fisher Scientific). Cells were plated one day before the assay in 384-well plates at 1500 cells/well and assayed in adherent mode by removing the media, patting on paper towel and adding 10 µl of 1 µM of UCN2 or vehicle control for 1 h. Cells were gently washed 3 times with wash buffer and rested for 6 h in incubator. Following rest, cells were restimulated with titrating concentrations of UCN2 with IBMX, at a final concentration of 250 µM. Reactions continued for 30 min at 37 °C followed by addition of detection reagents and a one-hour minimum incubation at room temperature. HTRF, a competitive immunoassay, produces a fluorescence signal read with an Envision multi-plate reader using an excitation of 330 nm and emissions of 615 and 665 nm. By interpolation from a cAMP standard curve, raw data were converted to nm cAMP and then expressed as percent effect of 1 µM UCN2 in vehicle control pretreatment conditions."}}, "note": "Where no end group is shown, it is not given here."}
{"substance": "IVLSLDVPIGLLQILLEQARARAAREQATTNARILARVGHC-NH2 (C-terminus assumed) [UCN2, Urocortin 2]", "values": [{"measurement": "UCN2 concentration for Gs activation versus engagement of Gi and β-Arrestin", "setting": "human CRHR2a (Gs)", "result": "more than 10 fold"}, {"measurement": "cAMP response to subsequent UCN2 after UCN2 pre-treatment", "setting": "CRHR2 alpha; 1 µM UCN2 for 1 h, wash, 6 h rest, restimulation", "result": "significantly blunts the cAMP activation response"}, {"measurement": "cAMP response to increasing concentrations", "setting": "CRHR2 alpha; CRHR2-transfected HEK 293 cells, 30 min at 37 °C, IBMX 250 µM", "result": "increases in a dose-dependent manner"}]}
